# Measured values from patent US7326679B2, “Anticancer peptide compositions” (TranXenoGen, Inc., priority 2003, dated 2008).
# Entries after “also recorded” stand apart in the source; their conditions may differ. Square brackets hold non-standard residues; d marks the D form. Ends that are not written are not given here. pGlu = O=C1CC[C@@H](C(=O)O)N1
# How the values were obtained:
# HeLa tumor = test: In vivo nude mice experiment, HeLa tumor growth; parameters: species or system Nude nu/nu mice; settings: for inhibition of HeLa tumor growth during treatment phase (average tumor volume): n=3; for tumor growth profile post treatment: after fourth treatment until day 24, Pep A 500 and 750 μg, Pep B 500 μg; for response of individual tumors to treatment: tumor volumes on day 14, one day post last treatment; for vascularization and infiltration of isolated tumors (histopathology): compared to control mice
# Protocol: The HeLa human cervical cancer cell line (ATCC, Manassas Va.; CCL-2) was grown according to direction in DMEM containing 10% fetal bovine serum. Cells in log phase were harvested from flasks using trypsin-EDTA (0.25% trypsin/1 mM Na-EDTA; Invitrogen), washed in PBS and resuspended in DMEM for counting and viability assessment using trypan blue exclusion. […] Cells were resuspended at 5×10^7 cells/mL in PBS for injection into the mice.
# Nude nu/nu mice (4 to 5 week-old females) were acclimated for 1 week and injected with 5 million HeLa cells subcutaneously (SQ) in a total volume of 100 μL. After 3 days of tumor development, the mice were injected SQ with each peptide prepared in phosphate buffered saline (PBS) containing 0.05% sodium dodecyl sulfate (SDS) or PBS+0.05% SDS alone. All doses were 200 μL in volume, with additional treatments on days 6, 10 and 13 post-transplantation. Treatments were alternated between flanks of the mice. Tumor size and mouse weights were measured three times per week. The results represent the average of the 3 mice in each group. The experiment was terminated on day 24 and the tumors were excised for weight and histopathology.
# HeLa cells (5×10^6 cells in 100 μL were administered subcutaneously (SQ). The cells were implanted in the left mid-flank region of 5 week old immunodeficient Nude nu/nu female mice (Charles River Labs, Wilmington, Mass.) and allowed to develop to palpable size (average diameter=[…]; average volume=24 mm^3). Mice were randomized and divided into experimental groups, with 3 mice per group. The mice were treated with SQ injections (200 μL) of various doses of peptide in phosphate buffered saline (PBS) containing a detergent, e.g., 0.05% sodium dodecyl sulphate (SDS). Control mice were injected with PBS containing 0.05% SDS alone. […] The treatments were administered on days 3, 6, 10 and 13 post-transplantation. Tumors were measured three times per week until the experiment was terminated on day 24 post-transplantation.
# [1] = system: neo-vascularization of early chick embryo; test: Chick embryo neo-vascularization inhibition assay; assay type: in vivo, White Leghorn chick embryos; settings: day-3.5 chick embryo, filter disks
# Description: This assay was completed to determine the impact of Pep A and Pep B on neo-vascularization of early chick embryo. Small windows were created through the blunt end of the shell directly over the air sac of 3.5-day old White Leghorn chick embryos with the use of a small crafts Dremel drill. The air sac was peeled-off and filter disks with different concentrations of the test peptide or buffer control were placed over a section of the developing blood ring and overlapping connecting vessels of the chick embryo. The shell windows were sealed with parafilm and eggs were incubated at 37° C. in a humidified egg incubator. After 48-72 hours, the yolk membrane tissue directly below the filter disks was resected. Tissues were washed three times with PBS and analyzed for inhibition of neo-vascularization using a stereomicroscope with photo-digital attachment.
# [2] = system: bFGF induced angiogenesis; test: Chicken chorioallantoic membrane (CAM) assay; assay type: in vivo, White Leghorn chick embryos; settings: for inhibition of bFGF-induced angiogenesis: day-10 chick embryos; for anti-angiogenic activity in CAM assay (overall): increasing doses, 100 ng or 200 ng bFGF, 48 hours at 37° C.
# Description: The chicken chorioallantoic membrane (CAM) assay was completed to assess the effect of the peptides on basic fibroblast growth factor (bFGF) induced angiogenesis. Small windows were created through the blunt end of the shell directly over the air sac of 9-10 day old White Leghorn chick embryos with the use of a small crafts Dremel drill. The air sac was peeled-off, and filter disks saturated with basic fibroblast growth factor (bFGF) and the test peptide (or buffer control) were placed adjacent to each other on the CAM of the chick embryo. The shell windows were sealed with parafilm and eggs were incubated at 37° C. in a humidified egg incubator. After 48-72 hours, the CAM tissue directly below the filter disks was resected. Tissues were washed three times with PBS and analyzed using a stereomicroscope. The number of branching blood vessels infiltrating under the filter disks were determined and documented.
# CAM tissue cells = test: Detection of cell death in resected CAM tissues (H-33342 and propidium iodide staining); assay type: in vivo, chick embryos; settings: for apoptosis / DNA fragmentation (H-33342 staining): 100 ng bFGF plus 200 ng peptide
# Protocol: Following staining, the tissues were washed three times in PBS and fixed in 4% formalin. The tissues were visualized under epifluorescence using a photo-digital imaging system. The number of live, apoptotic and necrotic cells were determined.
# [3] = system: OSRC human osteogenic sarcoma tumor; test: Osteosarcoma (OSRC) tumor model in nude mice; assay type: in vivo, Nude nu/nu mice; settings: SQ treatments on days 8, 11, 14 and 17; n=4
# Protocol: Tumor cell culture and harvesting was carried out as follows. Human osteogenic sarcoma cancer cells (OSRC cell line) was grown in DMEM containing additional non-essential amino acids and vitamins and 10% heat inactivated fetal bovine serum (Invitrogen™, Carlsbad, Calif.). Cells in log phase were harvested from flasks using trypsin-EDTA (0.05% trypsin/0.53 mM Na-EDTA; Invitrogen™), washed in PBS and resuspended in DMEM for counting and viability assessment using trypan blue exclusion. Cells were resuspended at 2.5×10^7 cells per ml in PBS for injection into the mice.
# Nude nu/nu mice (4 to 5 week-old females, Charles River Labs, Wilmington, Mass.) were acclimated for 1 week before injection with 2.5 million OSRC cells subcutaneously (SQ) in a total volume of 100 μl. After 8 days of tumor development, the mice were injected SQ with each peptide or the protein pool prepared in phosphate buffered saline (PBS) containing 0.05% sodium dodecyl sulfate (SDS) or PBS+0.05% SDS alone (Control). All doses were 200 μl in volume, with additional treatments on days 11, 14 and 17 post-transplantation. Treatments were alternated between flanks of the mice. Tumor size (length, width and height) and mouse weights were measured three times per week. The results (FIGS. 6A-B) represent the average of the 4 mice in each group. […]
# [4] = 500 μg per dose SQ on days 3, 6, 10 and 13
# [5] = 200 ng peptide with 100 ng bFGF
Substance,inhibition of HeLa tumor growth during treatment phase (average tumor volume) (HeLa tumor; [4]),tumor growth profile post treatment (HeLa tumor),response of individual tumors to treatment (HeLa tumor),vascularization and infiltration of isolated tumors (histopathology) (HeLa tumor; tumors isolated upon sacrifice),suppression of neo-vascularization / branching vessel formation [1],"inhibition of bFGF-induced angiogenesis [2, 5]",anti-angiogenic activity in CAM assay (overall) [2],apoptosis / DNA fragmentation (H-33342 staining) (CAM tissue cells),condensation of the cell nuclei (CAM tissue cells; compared to controls),osteosarcoma tumor volume (tumor burden) [3],"inhibition of HeLa tumor growth during treatment phase (average tumor volume) (HeLa tumor; 750 μg per dose SQ on days 3, 6, 10 and 13)",areas of cell death in isolated tumors (histopathology) (HeLa tumor; tumors isolated upon sacrifice),suppression of bFGF-induced angiogenesis ([2]; 200 ng of bFGF),inhibition of bFGF-induced angiogenesis ([2]; Pep A with 100 ng bFGF),apoptosis / DNA fragmentation (H-33342 staining) (CAM tissue cells; listed as PepA)
pyroELKCYTCKEPMTSASCRTIT ([pGlu]LKCYTCKEPMTSASCRTIT; cysteine pairing not given here) [Pep B],tumor inhibition during the treatment phase,escalation of tumor burden; also recorded: lost shortly after treatment stopped,response of all animals,significantly less vascularization and infiltration,dose dependent suppression of branching vessel formation,inhibition of bFGF-induced angiogenesis,inhibited angiogenesis,did not demonstrate the peri-vascular apoptosis; also recorded: minimal increase in apoptosis over the control,observable condensation of the cell nuclei,–,–,–,–,–,–
6 mer: residues 5-10 of SEQ ID NO:1 (YTCKEP),–,–,–,–,–,–,–,–,–,reduction of osteosarcoma tumor volume,–,–,–,–,–
ELKCYTCKEPMTSASCRTIT [Pep A],tumor inhibition during the treatment phase,slight increase in tumor burden; also recorded: only limited tumor growth for the duration of the experiment,response of all animals,significantly less vascularization and infiltration,dose dependent suppression of branching vessel formation,comparatively better inhibition of blood vessel infiltration,inhibited angiogenesis; also recorded: more potent anti-angiogenic agent,Intensely staining apoptotic nuclei (white) of vascular cells; also recorded: significant increase in DNA fragmentation,–,reduction of osteosarcoma tumor volume,tumor inhibition during the treatment phase,larger areas of cell death; also recorded: noticeably larger,showed suppression,inhibition of neo-vascularization and infiltration as well as degradation of pre-existing vessels,induces cell death by apoptosis
